Converted amounts (≈) assume the structure as drawn.
Experiment: Saturation solubility of edaravone in water
Format: physicochemical

SMILES: CC1=NN(c2ccccc2)C(=O)C1 [edaravone, 3-Methyl-1-phenyl-2-pyrazolin-5-one]
- solubility: 2000 µg/mL (≈ 11.5 mM)

From patent US20210128529A1, “DRUG CONTAINING PYRAZOLONE DERIVATIVE” (NOBELPHARMA CO., LTD., priority 2017, published 2021)
